Assay results from patent publication US10435642B2, “Ionic liquids containing symmetric quaternary phosphonium cations and phosphorus-containing anions, and their use as lubricant additives” (UT-Battelle, LLC, priority 2014, dated 2019).

Assays:
[1] = Density measurement of ionic liquids; assay type: physicochemical; settings: neat ionic liquid
Description: (§1) Density and Viscosity Measurements
(§2) The density and viscosity of [P8888][DEHP] were measured and compared with those of [P66614][DEHP] and [P44414][DEHP].

[2] = Viscosity measurement of ionic liquids; assay type: physicochemical
Description: as §1, §2

[3] = Corrosion test: droplet of ionic liquid on grey cast iron; settings: observation in the corrosion test
Description: A droplet of each IL was placed on the surface of a piece of grey cast iron.

[4] = Thermogravimetric analysis (TGA) thermal stability in air; assay type: physicochemical
Description: ZDDP, when decomposed, left about a 20% solid residue (“ash”) because of its zinc content. In contrast, all decomposition products of the ionic liquids were gaseous, thus confirming their “ashless” nature.

Row | Substance | ρ (density) [1] [g/cc] | η (viscosity) 40° C. [2] [cP] | η (viscosity) 100° C. [2] [cP] | Oil-solubility in ExxonMobil PAO 4 cSt base oil (ExxonMobil PAO 4 cSt base oil) [wt %] | Hydrophobicity compared to the other ionic liquids [3] | Oil-solubility in Chevron SAE 10 W base oil (Chevron SAE 10 W base oil) [wt %] | Oil-solubility in Shell GTL 4 cSt base oil (Shell GTL 4 cSt base oil) [wt %] | Solid residue (ash) after decomposition [4] [%]
1 | tetraoctylphosphonium bis(2-ethylhexyl)phosphate [[P8888][DEHP]] | 0.86 | 608 | 68 | >50 |  |  |  | 
2 | tributyltetradecylphosphonium bis(2-ethylhexyl)phosphate [[P44414][DEHP]] | 0.88 | 252 | 25 |  | lower hydrophobicity | <1 | <1 | 
3 | zinc dialkyldithiophosphate [ZDDP] |  |  |  |  |  |  |  | ~20
4 | trihexyltetradecylphosphonium bis(2-ethylhexyl)phosphate [[P66614][DEHP]] | 0.91 | 390 | 45 |  |  |  |  | 
